# Reference: PMC11524583, “Neurons enhance blood–brain barrier function via upregulating claudin-5 and VE-cadherin expression due to glial cell line-derived neurotrophic factor secretion” (eLife, 2024)
# “And” between values parts separate entries of the source, which are not always exact repeats. Identical values can stand only once. “Also recorded” adds a separate entry of the source. Like-named read-outs stand apart in the source and are kept apart here. Marks after values point to notes of the source that are not given here.
# Key:
# [1] = in situ brain perfusion in rodents, published permeability multiplied by VSA 150 cm^2/g, cited from earlier work
# [2] = system: triple co-culture BBB model (hCMEC/D3, U251 and SH-SY5Y cells)
# [3] = unbound fraction in brain, cited from earlier work
# in vitro [4] = settings: human
# [5] = system: hCMEC/D3 mono-culture BBB model
# in vitro [6] = settings: human; remark: listed apart in the source
# [7] = system: hCMEC/D3 mono-culture BBB model; assay: In vitro BBB permeability study (Papp), hCMEC/D3 mono-culture BBB model
# [8] = system: triple co-culture BBB model (hCMEC/D3, U251 and SH-SY5Y cells); assay: In vitro BBB permeability study (Papp), triple co-culture BBB model
# [9] = system: hCMEC/D3 mono-culture BBB model; assay: TEER of hCMEC/D3 mono-culture BBB model; format: cell-based, Homo sapiens; settings: hCMEC/D3 mono-culture, 200 pg/ml GDNF, day 6; 3 μM SPP-86 or 5 μM PP2
# VE-cadherin = assay: Western blot of VE-cadherin expression in hCMEC/D3 cells; format: cell-based, Homo sapiens; settings: hCMEC/D3 cells, anti-GDNF antibody 0.25, 0.5, 1.0 μg/ml
# Experimental: (§1) Whole-cell and tissue lysates, nucleoprotein, and cytoplasmic protein were prepared using RIPA Lysis Buffer (Beyotime, Shanghai, China) as the described method ([Wu et al., 2021]). Proteins were separated through sodium dodecyl sulfate–polyacrylamide gel electrophoresis and transferred onto nitrocellulose or polyvinylidene difluoride membranes. The membranes were blocked with 5% skim milk and incubated with corresponding primary antibodies at 4°C overnight. After being washed with Tris-buffered saline Tween buffer, the membranes were incubated with secondary antibodies (Cell Signaling Technology, MA, USA) at 1:3000 dilution: Anti-mouse IgG, HRP-linked Antibody (#7076), Anti-rabbit IgG, HRP-linked Antibody (#7074). Protein levels were visualized using a highly sensitive ECL western blotting substrate and a gel imaging system (Tanon Science & Technology, Shanghai, China).
# (§2) CM of U251 cells (U-CM), SH-SY5Y cells (S-CM), or co-culture of U251 and SH-SY5Y cells (US-CM) was prepared. U251 cells were seeded at the top of the insert membrane and suspended on 6-well plates seeded with differentiated SH-SY5Y cells to co-culture U251 cells with SH-SY5Y cells. The medium was collected every 24 hr. The CMs were subsequently used for hCMEC/D3 cell culture after filtrating with 0.2 μm filters for 144 hr. The levels of GDNF, bFGF, IGF-1, and TGF-β in CMs were measured using corresponding ELISA kits according to the manufacturers’ instructions.
# (§3) Exogenous and endogenous GDNF in the medium was neutralized with anti-GDNF antibody (#AF-212-NA, R&D system, Minneapolis, MN, USA). 0.25, 0.5, and 1.0 μg/ml anti-GDNF antibody was added into the US-CM or medium containing 200 pg/ml GDNF, and then the medium was preincubated at 4°C for 1 hr. The hCMEC/D3 cells were incubated with 200 pg/ml GDNF or US-CM containing anti-GDNF antibody or not for 6 days, and then cell lysate was collected for western blot. The medium was replaced every 24 hr.
# (§4) Here, hCMEC/D3 cells were plated in the plates or culture dishes at 6 × 10^4 cells/cm^2 and transfected with 10 nM of negative control or human FOXO1, ETS1, and CDH5 siRNA (Tsingke Biotechnology, Beijing, China) for 12 hr using Lipofectamine 3000 (Invitrogen, Carlsbad, CA, USA) reagent according to the manufacturer’s instructions. Cells were then incubated with a medium containing GDNF for 72 hr.
# [10] = system: triple co-culture BBB model (hCMEC/D3, U251 and SH-SY5Y cells); assay: TEER of triple co-culture BBB model; format: cell-based, Homo sapiens; settings: for TEER: Figure 2Q, group Triple+SPP, individual replicates, listed as SPP
# Experimental: The establishment process of the triple co-culture model is illustrated in Figure 9. SH-SY5Y cells were seeded at a density of 4.5 × 10^4 cells/cm^2 in plates and differentiated with 10 μM retinoic acid (Sigma-Aldrich, St. Louis, MO, USA) for 72 hr. The differentiated SH-SY5Y cells were cultured in the fresh DMEM/F12 medium containing 10% FBS. U251 cells were seeded at 2 × 10^4 cells/cm^2 on the bottom of Transwell inserts (PET, 0.4 µm pore size, SPL Life Sciences, Pocheon, Korea) coated with rat-tail collagen (Corning Inc, Corning, NY, USA). Next, the inserts were suspended in plate wells containing the culture medium after 5 hr of incubation. After 24 hr of incubation, hCMEC/D3 cells were seeded on the apical side of the inserts at 3 × 10^4 cells/cm^2 and cultured for another 48 hr. Then, the inserts seeded with U251 and hCMEC/D3 cells were suspended in plates seeded with differentiated SH-SY5Y cells and co-cultured for another 6 days. The culture medium was replaced every 24 hr. TEER was periodically measured using a Millicell-ERS (MERS00002) instrument (Millipore, Billerica MA, USA) to monitor cell confluence and development of TJs.
# claudin-5 = assay: Western blot of claudin-5 expression in hCMEC/D3 cells; format: cell-based, Homo sapiens; settings: hCMEC/D3 cells, anti-GDNF antibody 0.25, 0.5, 1.0 μg/ml
# Experimental: as §1, §2, §3, §4
# The plasmids encoding FOXO1 (EX-Z7404-M02) were constructed by GeneCopoeia (Rockville, MD, USA). The hCMEC/D3 cells were plated in plates or dishes at 6 × 10^4 cells/cm^2. They were subsequently transfected with 1 µg of negative control or plasmids encoding FOXO1 6 hr using Lipofectamine 3000 reagent according to the manufacturer’s instructions. Transfected cells were then incubated with the medium containing GDNF for 72 hr.
# [11] = 200 pg/ml GDNF, 3 μM SPP-86, 5 μM PP2, 3 μM LY294002, 2 μM U0126, 5 μM SP600125, 2 μM SB203580
# [12] = US-CM, 3 μM SPP-86, 5 μM PP2, 3 μM LY294002, 2 μM U0126
SMILES,"PS ([2]; human, 30 min)","Papp A→B at 30 min (in vitro [4]; Papp, Triple)","PSPre, Mono ([5]; human)","PS ([5]; human, 30 min)","Papp A→B at 30 min (in vitro [6]; Papp, Mono)",Papp A→B at 30 min (in vitro [6]; Papp Mean),"PSObs ([1]; ref Summerfield et al., 2007)","fu, brain ([3]; ref Summerfield et al., 2007)",further results
NC12CC3CC(CC(C3)C1)C2 [Amantadine],165.23 µL/min/g,3.64 ± 0.26 ×10⁻⁶ cm/s,310.22 µL/min/g,310.22 µL/min/g,6.84 ± 0.95 ×10⁻⁶ cm/s,,116.10^† μl/min/g,,"fu, brain ([3]; ref Esaki et al., 2019): 0.1985^*; Papp A→B at 30 min (in vitro [4]; Papp (individual replicate)): 3.04 ×10⁻⁶ cm/s"
CN(C)CCC=C1c2ccccc2CCc2ccccc21 [Amitriptyline],13149.00 µL/min/g,14.6 ± 0.27 ×10⁻⁶ cm/s,"13,716.00 μl/min/g",13716.00 µL/min/g,15.2 ± 0.64 ×10⁻⁶ cm/s,15.2 ×10⁻⁶ cm/s,,,"PSObs ([1]; ref Avdeef and Sun, 2011): 4608.00^*** μl/min/g; PSPre, Triple ([2]; human): 13,149.00 μl/min/g; fu, brain ([3]; ref Fridén et al., 2011): 0.01^‡; fu, brain ([3]; ref Sánchez-Dengra et al., 2021): 0.002; fu, brain ([3]; ref Weber et al., 2013): 0.0071; Papp A→B at 30 min (in vitro [4]; Papp (individual replicate)): 14 ×10⁻⁶ cm/s; Papp A→B at 30 min (in vitro [4]; Papp Mean): 14.6 ×10⁻⁶ cm/s; Papp A→B at 30 min (in vitro [6]; Papp (individual replicate)): 16.6 ×10⁻⁶ cm/s"
CC(NC(C)(C)C)C(=O)c1cccc(Cl)c1 (centres unmarked) [Buproprion],,,,,,,,,"PS [2]: 850.58 µL/min/g; Papp A→B ([7]; read-out: Papp Mean, Mono-culture BBB Model, mean of 4 replicates): 15.2 ×10⁻⁶ cm/s; PS [5]: 1139.58 µL/min/g; Papp A→B ([8]; read-out: Papp Mean, Triple co-culture BBB model, mean of 4 replicates): 11.3 ×10⁻⁶ cm/s"
NC(=O)N1c2ccccc2C=Cc2ccccc21 [Carbamazepine],908.69 µL/min/g,11.7 ± 0.15 ×10⁻⁶ cm/s,2666.89 µL/min/g,2666.89 µL/min/g,34.4 ± 1.26 ×10⁻⁶ cm/s,,959.40^† μl/min/g,,"fu, brain ([3]; ref Maurer et al., 2005): 0.116^¶"
CN(C)CCC=C1c2ccccc2COc2ccccc21 [Doxepin],3837.60 µL/min/g,,6076.80 µL/min/g,6076.80 µL/min/g,16.9 ± 1.08 ×10⁻⁶ cm/s,16.9 ×10⁻⁶ cm/s,2192.40^† μl/min/g,0.025^†,
CC(C)n1nc(C#Cc2ccccc2)c2c(N)ncnc21 [SPP-86],,,,,,,,,"GDNF-increased TEER values, effect of inhibitor [9]: almost abolished; GDNF-induced VE-cadherin expression (VE-cadherin; [11]): markedly attenuated; also recorded: significantly suppressed; US-CM-induced VE-cadherin expression (VE-cadherin; [12]): markedly attenuated; also recorded: markedly reversed; TEER ([10]; Day3): 56.76 Ω·cm2 and 57.75 Ω·cm2 and 55.77 Ω·cm2 and 59.4 Ω·cm2; TEER ([10]; Day4): 63.03 Ω·cm2 and 62.37 Ω·cm2 and 61.38 Ω·cm2 and 59.4 Ω·cm2; TEER ([10]; Day5): 71.94 Ω·cm2 and 75.24 Ω·cm2 and 74.25 Ω·cm2 and 72.27 Ω·cm2; TEER ([10]; Day6): 75.24 Ω·cm2 and 76.56 Ω·cm2 and 75.9 Ω·cm2 and 74.25 Ω·cm2; increased TEER values in the triple co-culture BBB model, effect of inhibitor ([10]; day 6, 3 μM SPP-86 or 5 μM PP2): completely reversed; GDNF-decreased permeability of fluorescein and FITC-Dex, effect of inhibitor ([7]; hCMEC/D3 mono-culture, 200 pg/ml GDNF, 3 μM SPP-86 or 5 μM PP2): almost abolished; GDNF-induced claudin-5 expression (claudin-5; [11]): markedly attenuated; also recorded: significantly suppressed; US-CM-induced claudin-5 expression (claudin-5; [12]): markedly attenuated; also recorded: markedly reversed; decreased permeability of fluorescein and FITC-Dex in the triple co-culture BBB model, effect of inhibitor ([8]; 3 μM SPP-86 or 5 μM PP2): completely reversed"

# More lines, main results first:
"PS ([2]; human, 30 min)","Papp A→B at 30 min (in vitro [4]; Papp, Triple)","PSPre, Mono ([5]; human)","PS ([5]; human, 30 min)","Papp A→B at 30 min (in vitro [6]; Papp, Mono)",Papp A→B at 30 min (in vitro [6]; Papp Mean),SMILES,"PSObs ([1]; ref Summerfield et al., 2007)","fu, brain ([3]; ref Summerfield et al., 2007)",further results
8272.72 µL/min/g,12.9 ± 2.06 ×10⁻⁶ cm/s,"25,052.57 μl/min/g",25052.57 µL/min/g,39 ± 0.54 ×10⁻⁶ cm/s,,CN1CCN(C2=Nc3cc(Cl)ccc3Nc3ccccc32)CC1 [Clozapine],,,"fu, brain ([3]; ref Bhyrapuneni et al., 2018): 0.0056; fu, brain ([3]; ref Cremers et al., 2012): 0.014^**; Papp A→B at 30 min (in vitro [6]; Papp (individual replicate)): 38.9 ×10⁻⁶ cm/s"
163.41 µL/min/g,,348.66 µL/min/g,348.66 µL/min/g,14.1 ± 1.44 ×10⁻⁶ cm/s,14.1 ×10⁻⁶ cm/s,CCN(CC)CCNC(=O)c1cc(Cl)c(N)cc1OC [Metoclopramide],125.10^† μl/min/g,0.365^†,
2009.25 µL/min/g,17.9 ± 0.21 ×10⁻⁶ cm/s,2637.00 µL/min/g,2637.00 µL/min/g,23.4 ± 0.44 ×10⁻⁶ cm/s,,CN1CCN2c3ncccc3Cc3ccccc3C2C1 (centres unmarked) [Mirtazapine],1912.50^† μl/min/g,0.08^†,
